Test results taken from patent US11174268B2, “Benzenesulfonamide compouds and their use as therapeutic agents” (Xenon Pharmaceuticals Inc., priority 2016, dated 2021).
Structures can show the parent of a compound that is named as a salt. Where two headings read alike, the source gives them in different places.

Key:
NaV1.6 [1] = target: T1, NaV1.6 (Homo sapiens (Human), UniProt Q9UQD0); assay: Sodium Influx Assay (Flux), NaV1.6; format: cell-based; settings: Trex HEK293 cells, ANG2 dye, inactivated state;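 note: Tetracycline-induced cells, compounds applied for one hour at room temperature with modulators holding channels open, IC50 from percent inhibition of sodium influx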
T1 sequence (Q9UQD0 whole entry): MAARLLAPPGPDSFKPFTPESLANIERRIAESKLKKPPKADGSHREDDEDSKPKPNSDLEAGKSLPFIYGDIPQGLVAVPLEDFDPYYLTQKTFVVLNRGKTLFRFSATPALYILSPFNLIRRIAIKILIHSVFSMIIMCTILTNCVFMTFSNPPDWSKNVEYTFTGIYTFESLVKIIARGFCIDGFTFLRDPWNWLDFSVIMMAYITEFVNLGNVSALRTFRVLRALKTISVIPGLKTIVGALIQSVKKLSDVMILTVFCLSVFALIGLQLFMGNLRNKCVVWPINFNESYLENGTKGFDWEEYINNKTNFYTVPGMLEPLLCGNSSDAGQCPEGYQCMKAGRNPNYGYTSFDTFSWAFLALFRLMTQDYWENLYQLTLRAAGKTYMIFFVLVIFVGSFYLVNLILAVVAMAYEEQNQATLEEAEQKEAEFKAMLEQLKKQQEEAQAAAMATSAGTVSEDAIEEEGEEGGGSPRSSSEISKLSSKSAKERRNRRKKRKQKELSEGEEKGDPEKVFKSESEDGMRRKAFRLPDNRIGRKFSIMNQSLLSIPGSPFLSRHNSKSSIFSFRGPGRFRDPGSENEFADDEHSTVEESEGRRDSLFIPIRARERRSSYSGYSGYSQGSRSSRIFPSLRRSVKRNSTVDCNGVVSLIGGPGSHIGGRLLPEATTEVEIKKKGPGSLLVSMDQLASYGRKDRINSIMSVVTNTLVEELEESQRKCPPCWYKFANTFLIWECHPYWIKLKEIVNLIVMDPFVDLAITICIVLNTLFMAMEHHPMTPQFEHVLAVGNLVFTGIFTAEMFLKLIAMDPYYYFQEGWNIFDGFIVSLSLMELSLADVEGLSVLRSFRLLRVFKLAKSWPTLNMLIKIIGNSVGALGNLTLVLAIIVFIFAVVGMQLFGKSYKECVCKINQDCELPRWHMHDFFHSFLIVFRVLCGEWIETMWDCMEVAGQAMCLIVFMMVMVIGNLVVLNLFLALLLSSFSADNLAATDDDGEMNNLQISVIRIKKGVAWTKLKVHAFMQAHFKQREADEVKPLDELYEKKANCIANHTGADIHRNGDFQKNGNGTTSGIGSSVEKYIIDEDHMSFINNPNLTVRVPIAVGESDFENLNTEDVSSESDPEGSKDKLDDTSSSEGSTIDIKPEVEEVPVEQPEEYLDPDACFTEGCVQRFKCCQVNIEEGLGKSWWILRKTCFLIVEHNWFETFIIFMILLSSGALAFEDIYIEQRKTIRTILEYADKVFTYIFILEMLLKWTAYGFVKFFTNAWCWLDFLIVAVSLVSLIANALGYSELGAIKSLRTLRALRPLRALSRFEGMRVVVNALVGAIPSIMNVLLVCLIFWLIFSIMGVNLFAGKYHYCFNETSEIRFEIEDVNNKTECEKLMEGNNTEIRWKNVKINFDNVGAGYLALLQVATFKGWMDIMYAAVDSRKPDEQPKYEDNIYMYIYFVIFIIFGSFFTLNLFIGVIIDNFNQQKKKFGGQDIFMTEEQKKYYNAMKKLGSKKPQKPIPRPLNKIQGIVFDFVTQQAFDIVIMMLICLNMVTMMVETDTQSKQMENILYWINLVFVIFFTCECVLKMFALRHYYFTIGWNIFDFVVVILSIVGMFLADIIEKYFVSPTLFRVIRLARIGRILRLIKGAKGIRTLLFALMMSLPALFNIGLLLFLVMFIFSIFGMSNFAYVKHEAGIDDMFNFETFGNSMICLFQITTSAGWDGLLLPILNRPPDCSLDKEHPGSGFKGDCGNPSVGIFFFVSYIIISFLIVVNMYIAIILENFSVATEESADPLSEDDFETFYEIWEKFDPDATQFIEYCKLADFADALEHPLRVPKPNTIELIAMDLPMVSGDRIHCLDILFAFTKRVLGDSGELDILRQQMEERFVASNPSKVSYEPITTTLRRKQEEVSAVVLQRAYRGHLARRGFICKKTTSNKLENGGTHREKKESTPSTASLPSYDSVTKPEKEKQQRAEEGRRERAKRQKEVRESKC

NaV1.5 [2] = target: T2, NaV1.5 (Homo sapiens (Human), UniProt Q14524); assay: Sodium Influx Assay (Flux), NaV1.5
T2 sequence (Q14524 other isoform, or with tags, fused parts or gaps): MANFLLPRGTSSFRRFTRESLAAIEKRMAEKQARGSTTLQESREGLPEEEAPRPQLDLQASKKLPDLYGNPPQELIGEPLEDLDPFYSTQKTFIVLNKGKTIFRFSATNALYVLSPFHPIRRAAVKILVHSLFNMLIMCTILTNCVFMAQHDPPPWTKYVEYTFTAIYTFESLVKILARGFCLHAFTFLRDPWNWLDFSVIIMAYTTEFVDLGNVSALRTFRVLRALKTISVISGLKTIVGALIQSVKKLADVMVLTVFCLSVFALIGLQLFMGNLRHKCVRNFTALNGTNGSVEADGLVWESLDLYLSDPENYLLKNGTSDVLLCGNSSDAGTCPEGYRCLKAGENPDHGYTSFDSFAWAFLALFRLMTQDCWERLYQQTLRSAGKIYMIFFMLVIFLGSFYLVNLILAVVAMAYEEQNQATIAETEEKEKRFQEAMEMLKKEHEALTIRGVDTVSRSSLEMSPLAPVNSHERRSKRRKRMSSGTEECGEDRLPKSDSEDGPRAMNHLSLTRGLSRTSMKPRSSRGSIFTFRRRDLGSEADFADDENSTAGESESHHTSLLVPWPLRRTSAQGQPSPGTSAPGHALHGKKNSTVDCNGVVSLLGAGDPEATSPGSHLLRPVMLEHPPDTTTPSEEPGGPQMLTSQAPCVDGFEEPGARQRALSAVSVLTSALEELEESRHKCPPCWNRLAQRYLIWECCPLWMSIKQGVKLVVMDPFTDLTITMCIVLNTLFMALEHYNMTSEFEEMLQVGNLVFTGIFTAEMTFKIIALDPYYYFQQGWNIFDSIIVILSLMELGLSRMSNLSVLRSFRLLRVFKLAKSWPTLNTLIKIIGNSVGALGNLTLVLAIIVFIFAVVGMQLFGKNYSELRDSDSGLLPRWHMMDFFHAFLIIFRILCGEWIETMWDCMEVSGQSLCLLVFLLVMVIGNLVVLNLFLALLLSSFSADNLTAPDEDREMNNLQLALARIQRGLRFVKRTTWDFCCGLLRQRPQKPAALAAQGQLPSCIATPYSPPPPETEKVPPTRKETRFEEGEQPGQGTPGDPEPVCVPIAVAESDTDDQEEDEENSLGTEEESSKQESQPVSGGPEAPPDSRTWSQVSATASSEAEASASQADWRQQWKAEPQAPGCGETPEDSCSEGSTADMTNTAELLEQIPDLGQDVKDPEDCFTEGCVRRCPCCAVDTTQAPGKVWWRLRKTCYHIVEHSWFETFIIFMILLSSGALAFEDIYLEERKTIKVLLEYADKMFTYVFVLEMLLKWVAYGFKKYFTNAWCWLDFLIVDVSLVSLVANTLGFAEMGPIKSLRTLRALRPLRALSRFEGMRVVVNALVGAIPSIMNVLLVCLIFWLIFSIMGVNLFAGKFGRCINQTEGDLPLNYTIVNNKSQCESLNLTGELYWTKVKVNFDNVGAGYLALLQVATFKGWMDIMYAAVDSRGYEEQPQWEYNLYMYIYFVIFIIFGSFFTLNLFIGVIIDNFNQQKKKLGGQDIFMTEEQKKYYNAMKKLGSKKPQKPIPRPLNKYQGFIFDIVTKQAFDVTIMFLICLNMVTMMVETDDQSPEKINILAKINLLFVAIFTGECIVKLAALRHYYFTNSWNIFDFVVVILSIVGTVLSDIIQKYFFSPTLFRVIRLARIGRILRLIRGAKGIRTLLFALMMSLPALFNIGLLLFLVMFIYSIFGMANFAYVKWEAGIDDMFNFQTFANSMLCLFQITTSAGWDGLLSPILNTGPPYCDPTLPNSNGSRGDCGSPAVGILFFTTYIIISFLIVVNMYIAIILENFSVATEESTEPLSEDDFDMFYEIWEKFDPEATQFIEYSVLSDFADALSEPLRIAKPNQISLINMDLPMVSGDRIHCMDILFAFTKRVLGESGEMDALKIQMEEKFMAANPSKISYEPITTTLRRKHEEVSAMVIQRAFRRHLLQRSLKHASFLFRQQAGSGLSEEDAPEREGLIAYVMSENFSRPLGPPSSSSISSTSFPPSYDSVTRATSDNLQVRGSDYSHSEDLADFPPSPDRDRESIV

NaV1.1 [3] = target: T3, NaV1.1 (Homo sapiens (Human), UniProt P35498); assay: Sodium Influx Assay (Flux), NaV1.1; format: cell-based; settings: Trex HEK293 cells, ANG2 dye, inactivated state;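 note: channels co-expressed with human β1 subunit and held open by modulators, cells exposed to compounds for one hour at room temperature, IC50 from percent inhibition of influx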
NaV1.5 [4] = target: T2, NaV1.5; assay: Electrophysiological Assay (EP), patch voltage clamp, NaV1.5; format: cell-based; settings: HEK-293 cells, whole-cell patch clamp
NaV1.6 [5] = target: T1, NaV1.6; assay: Electrophysiological Assay (EP), patch voltage clamp, NaV1.6; format: cell-based; settings: HEK-293 cells, whole-cell patch clamp;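 note: sodium current recorded at ambient temperature, channels held inactivated then briefly repolarized to −150 mV for 20 ms before a test pulse, control currents in 0.5% DMSO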
NaV1.1 [6] = target: T3, NaV1.1; assay: Electrophysiological Assay (EP), patch voltage clamp, NaV1.1; format: cell-based; settings: HEK-293 cells, whole-cell patch clamp;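 note: sodium current block measured at ambient temperature, holding at fully inactivating potential, 20 ms repolarization to −150 mV before test pulse, versus 0.5% DMSO control currents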
NaV1.5 [7] = target: T2, NaV1.5
[8] = read-out: Flux NaV1.5 IC50, Trex HEK293 cells, ANG2 dye, inactivated state

Compound | IC50 (NaV1.6 [1]) [µM] | IC50 (NaV1.5 [2]; [8]) [µM] | IC50 (NaV1.1 [3]) [µM] | IC50 (NaV1.5 [4]) [µM] | IC50 (NaV1.6 [5]) [µM] | IC50 (NaV1.1 [6]) [µM] | IC50 (NaV1.5 [2]) [µM] | IC50 (NaV1.5 [7]) [µM]
C[C@H](Nc1cc(F)c(S(=O)(=O)Nc2cscn2)cc1Cl)c1cc(Cl)ccc1F [Example 5, (S)-5-chloro-4-((1-(5-chloro-2-fluorophenyl)ethyl)amino)-2-fluoro-N-(thiazol-4-yl)benzenesulfonamide] | 0.785 | 5.31 | 4.83 | 10 | 0.152 | 10 |  | 
C[C@H](Nc1cc(F)c(S(=O)(=O)Nc2nccs2)cc1Cl)c1ccccc1F [Example 45, (S)-5-chloro-2-fluoro-4-((1-(2-fluorophenyl)ethyl)amino)-N-(thiazol-2-yl)benzenesulfonamide] | 0.108 | 6.26 | 1.18 | 5.15 | 0.013 | 0.539 |  | 
O=S(=O)(Nc1nccs1)c1cc(Cl)c(NCc2cccc3ccncc23)cc1F [Example 61, 5-chloro-2-fluoro-4-((isoquinolin-8-ylmethyl)amino)-N-(thiazol-2-yl)benzenesulfonamide] | 0.021 | 8.91 | 1.13 | 10 | 0.004 | 0.283 |  | 
C[C@H](Oc1cc(F)c(S(=O)(=O)Nc2nccs2)cc1Cl)c1ccccc1F [Example 116, (S)-5-chloro-2-fluoro-4-(1-(2-fluorophenyl)ethoxy)-N-(thiazol-2-yl)benzenesulfonamide] | 0.477 | 4.58 | 5.78 | 14.3 | 0.037 | 9.89 |  | 
CCC(Nc1ccc(S(=O)(=O)Nc2ncns2)cc1Cl)c1ccccc1 (stereo not shown) [Example 139, 3-chloro-4-(1-phenylpropylamino)-N-(1,2,4-thiadiazol-5-yl)benzenesulfonamide] | 0.107 |  | 1.29 | ≥ 30 | 0.038 |  | 12.9 | 
C[C@H]1CCCN1Cc1cccc(F)c1CNc1cc(F)c(S(=O)(=O)Nc2cscn2)c(F)c1 [Example 158, (S)-2,6-difluoro-4-((2-fluoro-6-((2-methylpyrrolidin-1-yl)methyl)benzyl)amino)-N-(thiazol-4-yl)benzenesulfonamide formate] | 0.126 |  | 30 |  |  |  |  | 30
CN(Cc1cccc(F)c1CNc1cc(F)c(S(=O)(=O)Nc2cscn2)c(F)c1)CC1CC1 [Example 187, 4-((2-(((cyclopropylmethyl)(methyl)amino)methyl)-6-fluorobenzyl)amino)-2,6-difluoro-N-(thiazol-4-yl)benzenesulfonamide formate] | 0.065 |  | 12.4 |  |  |  |  | 30
C[C@H](Nc1ccc(S(=O)(=O)Nc2cscn2)c(F)c1Cl)c1cc(Cl)ccc1F [Example 190, (S)-3-chloro-4-((1-(5-chloro-2-fluorophenyl)ethyl)amino)-2-fluoro-N-(thiazol-4-yl)benzenesulfonamide] | 0.571 | 25.8 | 13.4 | 30 | 0.055 | 9.71 |  | 
C[C@H](Nc1cc(F)c(S(=O)(=O)Nc2nccs2)cc1Cl)c1cc(F)ccc1F [Example 268, (S)-5-chloro-4-((1-(2,5-difluorophenyl)ethyl)amino)-2-fluoro-N-(thiazol-2-yl)benzenesulfonamide] | 0.035 | 3.68 | 0.388 |  | 0.01 | 0.332 |  | 
O=S(=O)(Nc1ccncn1)c1cc(Cl)c(N[C@H](c2cc(Cl)ccc2F)C(F)(F)F)cc1F [Example 270, (R)-5-chloro-4-((1-(5-chloro-2-fluorophenyl)-2,2,2-trifluoroethyl)amino)-2-fluoro-N-(pyrimidin-4-yl)benzenesulfonamide] | 0.213 | 11 | 12.5 |  | 0.018 | 10 |  | 
O=S(=O)(Nc1cscn1)c1c(F)cc(NCc2ccccc2CN2CCC2)cc1F [Example 272, 4-((2-(azetidin-1-ylmethyl)benzyl)amino)-2,6-difluoro-N-(thiazol-4-yl)benzenesulfonamide formate] | 0.163 | 30 | 20.7 | 30 | 0.031 | 10 |  | 
C[C@H](Nc1ccc(S(=O)(=O)Nc2ccncn2)cc1C(F)(F)F)c1cc(F)ccc1F [Example 273, (S)-4-((1-(2,5-difluorophenyl)ethyl)amino)-N-(pyrimidin-4-yl)-3-(trifluoromethyl)benzenesulfonamide] | 0.896 | 30 | 30 |  | 0.122 | 10 |  | 
Cc1cc(S(=O)(=O)Nc2ccncn2)c(F)cc1N[C@@H](C)c1cc(Cl)ccc1F [Example 275, (S)-4-((1-(5-chloro-2-fluorophenyl)ethyl)amino)-2-fluoro-5-methyl-N-(pyrimidin-4-yl)benzenesulfonamide] | 0.174 | 30 | 5.33 |  | 0.025 | 4.85 |  | 
CC[C@H](Nc1cc(F)c(S(=O)(=O)Nc2ccncn2)cc1Cl)c1ccccc1Cl [Example 277, (S)-5-chloro-4-((1-(2-chlorophenyl)propyl)amino)-2-fluoro-N-(pyrimidin-4-yl)benzenesulfonamide 2,2,2-trifluoroacetate] | 0.38 | 9.39 | 3.77 | 10 | 0.043 | 5.59 |  | 
O=S(=O)(Nc1cscn1)c1c(F)cc(NCc2c(F)ccc(F)c2CN2CCC2)cc1F [Example 283, 4-((2-(azetidin-1-ylmethyl)-3,6-difluorobenzyl)amino)-2,6-difluoro-N-(thiazol-4-yl)benzenesulfonamide] | 0.126 | 28 | 14.9 | 30 | 0.011 | 14.5 |  | 
C[C@H](Nc1cc(F)c(S(=O)(=O)Nc2ncco2)cc1Cl)c1cc(F)ccc1F [Example 287, (S)-5-Chloro-4-((1-(2,5-difluorophenyl)ethyl)amino)-2-fluoro-N-(oxazol-2-yl)benzenesulfonamide] | 1.53 | 30 | 25.2 |  | 0.47 | 10 |  | 
O=S(=O)(Nc1cscn1)c1cc(Cl)c(NCc2c(F)ccc(F)c2CN2CCC2)cc1F [Example 288, 4-((2-(Azetidin-1-ylmethyl)-3,6-difluorobenzyl)amino)-5-chloro-2-fluoro-N-(thiazol-4-yl)benzenesulfonamide hydrochloride] | 0.18 | 17.9 | 11.8 |  | 0.036 | 10 |  | 
O=S(=O)(Nc1cscn1)c1c(F)cc(NCc2c(Cl)cccc2CN2CCC2)cc1F [Example 290, 4-((2-(azetidin-1-ylmethyl)-6-chlorobenzyl)amino)-2,6-difluoro-N-(thiazol-4-yl)benzenesulfonamide 2,2,2-trifluoroacetate] | 0.101 | 25.1 | 6.02 |  | 0.011 | 10 |  | 
O=S(=O)(Nc1cscn1)c1cc(Cl)c(NCc2c(F)ccc(F)c2CO)cc1F [Example 293, 5-Chloro-4-((3,6-difluoro-2-(hydroxymethyl)benzyl)amino)-2-fluoro-N-(thiazol-4-yl)benzenesulfonamide] | 0.426 | 30 | 12.7 |  | 0.202 | 10 |  | 
O=S(=O)(Nc1cscn1)c1c(F)cc(NCc2c(Cl)cccc2CN2CC3(COC3)C2)cc1F [Example 295, 4-((2-((2-oxa-6-azaspiro[3.3]heptan-6-yl)methyl)-6-chlorobenzyl)amino)-2,6-difluoro-N-(thiazol-4-yl)benzenesulfonamide formate] | 0.383 | 30 | 12.1 |  | 0.042 | 10 |  | 
CC[C@H](Nc1cc(F)c(S(=O)(=O)Nc2cccc(F)n2)cc1Cl)c1ccccc1F [Example 316, (S)-5-chloro-2-fluoro-4-((1-(2-fluorophenyl)propyl)amino)-N-(6-fluoropyridin-2-yl)benzenesulfonamide] | 0.961 | 5.86 | 2.5 |  | 0.264 | 5.65 |  | 
CN1CC(Oc2cccc(F)c2CNc2cc(F)c(S(=O)(=O)Nc3cscn3)c(F)c2)C1 [Example 326, 2,6-difluoro-4-((2-fluoro-6-((1-methylazetidin-3-yl)oxy)benzyl)amino)-N-(thiazol-4-yl)benzenesulfonamide formate] | 0.125 | 12.7 | 7.86 |  | 0.09 | 10 |  | 
O=S(=O)(Nc1cccnn1)c1c(F)cc(NCc2c(F)cccc2CN2CCC2)cc1F [Example 333, 4-((2-(azetidin-1-ylmethyl)-6-fluorobenzyl)amino)-2,6-difluoro-N-(pyridazin-3-yl)benzenesulfonamide formate] | 0.257 | 30 | 30 |  | 0.186 | 10 |  | 
O=S(=O)(Nc1cscn1)c1cc(Cl)c(N[C@H](c2cc(F)ccc2F)C(F)F)cc1F [Example 335, (R)-5-chloro-4-((1-(2,5-difluorophenyl)-2,2-difluoroethyl)amino)-2-fluoro-N-(thiazol-4-yl)benzenesulfonamide] | 0.385 | 21.2 | 4.79 |  | 0.085 | 10 |  | 
